{"source": "patent US9259452B2", "about": "“Deacetylase inhibitor therapy” (Celgene Corporation, priority 2006, dated 2016)", "assay_type_in_all_cases": "in vivo, human", "key": {"[1]": {"assay": "Rhythm evaluation by Holter and telemetry monitoring", "excerpt": "Rhythm: A 24-hour Holter monitor was obtained prior to initiating therapy to establish a baseline rhythm. Patients were monitored by telemetry following administration of the first dose until discharge on day 3."}, "[2]": {"assay": "Toxicities and cardiac events observed on the phase II trial", "excerpt": "(§1) The protocol (NCI 01-C-0049 or 1312) and informed consent were approved by the Institutional Review Board of the National Cancer Institute. All data used in this analysis were obtained from patients who signed an informed consent and were enrolled and treated at the NIH Warren Grant Magnuson Clinical Center. Toxicities were reported using the National Cancer Institute Common Toxicity Criteria, CTC version 2.0. The Inclusion Criteria required measurable disease, an age of 18 years or older, an ECOG performance status of 0, 1 or 2, and a life expectancy of >12 wk. Required laboratory values included AGC≧1000/μL, platelets≧100,000/μL, bilirubin <1.5× the institutional upper limit of normal (ULN), AST <3×ULN, and creatinine <1.5×ULN. Patients with a myocardial infarction within the previous 6 months, a left ventricular ejection fraction (LVEF) below normal (<45% if performed by MUGA, or <50% if performed by echocardiogram or cardiac MRI), a corrected QT interval of >500 ms, unstable angina, or third degree heart block (unless with pacemaker) were not eligible to enroll.\n(§2) Subsequently, the protocol was amended and all patients were treated on days 1, 8 and 15 of a 28 day cycle, with a starting dose of 14 mg/m^2. This change was made for improved patient tolerability. […] Provisions for dose reduction were made in the case of grade 3 or 4 toxicity. Alternatively, a dose increase was allowed for patients who had no serious toxicities."}, "[3]": {"assay": "ECG evaluation of T-wave (grade 1) and ST segment (grade 2) abnormalities, phase II trial of romidepsin in T-cell lymphoma patients", "conditions": "for ECGs Grade 0 (no T-wave/ST segment abnormality) / ECGs Grade 1 (T-wave abnormality) / ECGs Grade 2 (ST segment depression): all doses, n = 42 patients", "excerpt": "as §1, §2"}, "[4]": {"conditions": "Pre-treatment cycle 2 day 1 (n = 34), worst grade cycle 1: 1"}, "[5]": {"conditions": "Pre-treatment cycle 2 day 1 (n = 34), worst grade cycle 1: 2"}, "[6]": {"conditions": "Pre-treatment cycle 3 day 1 (n = 28), worst grade cycle 2: 1"}, "[7]": {"conditions": "Pre-treatment cycle 3 day 1 (n = 28), worst grade cycle 2: 2"}, "[8]": {"conditions": "Pre-treatment day 8 (n = 37), worst grade post-day 1 treatment 0"}, "[9]": {"conditions": "Pre-treatment day 8 (n = 37), worst grade post-day 1 treatment 1"}, "[10]": {"conditions": "Pre-treatment day 8 (n = 37), worst grade post-day 1 treatment 2"}, "[11]": {"conditions": "Pre-treatment day 15 (n = 36), worst grade post-day 8 treatment 0"}, "[12]": {"conditions": "Pre-treatment day 15 (n = 36), worst grade post-day 8 treatment 1"}, "[13]": {"conditions": "Pre-treatment day 15 (n = 36), worst grade post-day 8 treatment 2"}, "[14]": {"conditions": "Day after treatment, listed as depsipeptide"}, "[15]": {"conditions": "Immediate post infusion, listed as depsipeptide"}, "[16]": {"conditions": "Pre-treatment ECGs, listed as depsipeptide"}, "[17]": {"conditions": "any time during treatment, 37 patients on day 1, 8, 15 schedule"}, "[18]": {"conditions": "first dose of the first cycle (n = 42), Day 2"}, "[19]": {"conditions": "first dose of the first cycle (n = 42), Day 3"}}}
{"smiles": "C/C=C1\\NC(=O)[C@H]2CSSCC/C=C/[C@H](CC(=O)N[C@H](C(C)C)C(=O)N2)OC(=O)[C@H](C(C)C)NC1=O", "note": "[romidepsin, (1S,4S,10S,16E,21R)-7-[(2Z)-ethylidene]-4,21-diisopropyl-2-oxa-12,13-dithia-5,8,20,23-tetraazabicyclo[8.7.6]tricos-16-ene-3,6,9,19,22-pentanone]", "values": [{"measurement": "VT on 24-hour Holter during administration", "setting": "[1]; 20 administrations to 9 patients, including 2 with VT pre-treatment", "value": "No patient had VT"}, {"measurement": "Patients noted to have SVT on 24-hour Holter during administration", "setting": "[1]; 20 administrations to 9 patients, episodes similar to pretreatment Holter", "value": "Two"}, {"measurement": "Additional patients observed to have wide complex tachycardia on telemetry", "setting": "[1]; telemetry 24-36 hours, 36 patients, max one event per 24 hr, 4 to 12 beats", "value": "Four"}, {"measurement": "Additional patients observed to have rare SVT on telemetry", "setting": "[1]; telemetry 24-36 hours, 36 patients, similar frequency on pre-treatment Holter", "value": "Three"}, {"measurement": "Observed toxicities", "setting": "[2]; 42 patients, phase II trial", "value": "primarily nausea and fatigue"}, {"measurement": "Pre-treatment and post-treatment EP studies", "setting": "[2]; one patient with significant ectopy prior to initiation of protocol", "value": "no change in intracardiac conduction or inducibility of any arrhythmias"}, {"measurement": "Cardiac event in a patient with QTc greater than 500", "setting": "[2]; telemetry, abnormal magnesium and potassium levels", "value": "12 beat run of VT that was asymptomatic and did not recur"}, {"measurement": "Patients with worst ECG Grade 0", "setting": "[3]; All cycles, 42 patients", "value": 2, "unit": "%"}, {"measurement": "Patients with worst ECG Grade 1", "setting": "[3]; All cycles, 42 patients", "value": 45, "unit": "%"}, {"measurement": "Patients with worst ECG Grade 2", "setting": "[3]; All cycles, 42 patients", "value": 52, "unit": "%"}, {"measurement": "Patients with worst ECG Grade 0", "setting": "[3]; Cycle 1 only, 42 patients", "value": 19, "unit": "%"}, {"measurement": "Patients with worst ECG Grade 1", "setting": "[3]; Cycle 1 only, 42 patients", "value": 57, "unit": "%"}, {"measurement": "Patients with worst ECG Grade 2", "setting": "[3]; Cycle 1 only, 42 patients", "value": 24, "unit": "%"}, {"measurement": "Patients with ECG grade 0 at presentation for next cycle", "setting": "[3]; Pre-treatment cycle 2 day 1 (n = 34), worst grade cycle 1: 0", "value": 6}, {"measurement": "Patients with ECG grade 0 at presentation for next cycle", "setting": "[3]; [4]", "value": 18}, {"measurement": "Patients with ECG grade 1 at presentation for next cycle", "setting": "[3]; [4]", "value": 3}, {"measurement": "Patients with ECG grade 0 at presentation for next cycle", "setting": "[3]; [5]", "value": 4}, {"measurement": "Patients with ECG grade 1 at presentation for next cycle", "setting": "[3]; [5]", "value": 2}, {"measurement": "Patients with ECG grade 2 at presentation for next cycle", "setting": "[3]; [5]", "value": 1}, {"measurement": "Patients with ECG grade 0 at presentation for next cycle", "setting": "[3]; Pre-treatment cycle 3 day 1 (n = 28), worst grade cycle 2: 0", "value": 2}, {"measurement": "Patients with ECG grade 0 at presentation for next cycle", "setting": "[3]; [6]", "value": 16}, {"measurement": "Patients with ECG grade 1 at presentation for next cycle", "setting": "[3]; [6]", "value": 1}, {"measurement": "Patients with ECG grade 0 at presentation for next cycle", "setting": "[3]; [7]", "value": 7}, {"measurement": "Patients with ECG grade 1 at presentation for next cycle", "setting": "[3]; [7]", "value": 2}, {"measurement": "Patients with ECG grade 0 at presentation for next cycle", "setting": "[3]; Pre-treatment cycle 4 day 1 (n = 20), worst grade cycle 3: 1", "value": 14}, {"measurement": "Patients with ECG grade 0 at presentation for next cycle", "setting": "[3]; Pre-treatment cycle 4 day 1 (n = 20), worst grade cycle 3: 2", "value": 6}, {"measurement": "Patients with ECG grade 0 at presentation for next dose", "setting": "[3]; [8]", "value": 14}, {"measurement": "Patients with ECG grade 1 at presentation for next dose", "setting": "[3]; [8]", "value": "two"}, {"measurement": "Patients with ECG grade 1 at presentation for next dose", "setting": "[3]; Pre-treatment day 8 (n = 37), worst grade post-day 1 treatment 0, listed as depsipeptide", "value": 2}, {"measurement": "Patients with ECG grade 0 at presentation for next dose", "setting": "[3]; [9]", "value": "nine"}, {"measurement": "Patients with ECG grade 1 at presentation for next dose", "setting": "[3]; [9]", "value": 8}, {"measurement": "Patients with ECG grade 2 at presentation for next dose", "setting": "[3]; [9]", "value": 1}, {"measurement": "Patients with ECG grade 0 at presentation for next dose", "setting": "[3]; Pre-treatment day 8 (n = 37), worst grade post-day 1 treatment 1, listed as depsipeptide", "value": 9}, {"measurement": "Patients with ECG grade 0 at presentation for next dose", "setting": "[3]; [10]", "value": "two"}, {"measurement": "Patients with ECG grade 1 at presentation for next dose", "setting": "[3]; [10]", "value": 1}, {"measurement": "Patients with ECG grade 0 at presentation for next dose", "setting": "[3]; Pre-treatment day 8 (n = 37), worst grade post-day 1 treatment 2, listed as depsipeptide", "value": 2}, {"measurement": "Patients with ECG grade 0 at presentation for next dose", "setting": "[3]; [11]", "value": 6}, {"measurement": "Patients with ECG grade 1 at presentation for next dose", "setting": "[3]; [11]", "value": 3}, {"measurement": "Patients with ECG grade 0 at presentation for next dose", "setting": "[3]; [12]", "value": 13}, {"measurement": "Patients with ECG grade 1 at presentation for next dose", "setting": "[3]; [12]", "value": 10}, {"measurement": "Patients with ECG grade 0 at presentation for next dose", "setting": "[3]; [13]", "value": 2}, {"measurement": "Patients with ECG grade 1 at presentation for next dose", "setting": "[3]; [13]", "value": 1}, {"measurement": "Patients with ECG grade 2 at presentation for next dose", "setting": "[3]; [13]", "value": 1}, {"measurement": "ECGs Grade 0 (no T-wave/ST segment abnormality)", "setting": "[3]; Day after treatment", "value": 20, "unit": "%"}, {"measurement": "ECGs Grade 1 (T-wave abnormality)", "setting": "[3]; Day after treatment", "value": 69, "unit": "%"}, {"measurement": "ECGs Grade 2 (ST segment depression)", "setting": "[3]; Day after treatment", "value": 11, "unit": "%"}, {"measurement": "ECGs Grade 1 (T-wave abnormality)", "setting": "[3]; [14]", "value": 69, "unit": "%"}, {"measurement": "ECGs Grade 2 (ST segment depression)", "setting": "[3]; [14]", "value": 11, "unit": "%"}, {"measurement": "ECGs Grade 0 (no T-wave/ST segment abnormality)", "setting": "[3]; Immediate post infusion", "value": 49, "unit": "%"}, {"measurement": "ECGs Grade 1 (T-wave abnormality)", "setting": "[3]; Immediate post infusion", "value": 48, "unit": "%"}, {"measurement": "ECGs Grade 2 (ST segment depression)", "setting": "[3]; Immediate post infusion", "value": 3, "unit": "%"}, {"measurement": "ECGs Grade 1 (T-wave abnormality)", "setting": "[3]; [15]", "value": 48, "unit": "%"}, {"measurement": "ECGs Grade 2 (ST segment depression)", "setting": "[3]; [15]", "value": 3, "unit": "%"}, {"measurement": "ECGs Grade 0 (no T-wave/ST segment abnormality)", "setting": "[3]; Pre-treatment ECGs", "value": 76, "unit": "%"}, {"measurement": "ECGs Grade 1 (T-wave abnormality)", "setting": "[3]; Pre-treatment ECGs", "value": 22, "unit": "%"}, {"measurement": "ECGs Grade 2 (ST segment depression)", "setting": "[3]; Pre-treatment ECGs", "value": 2, "unit": "%"}, {"measurement": "ECGs Grade 1 (T-wave abnormality)", "setting": "[3]; [16]", "value": 22, "unit": "%"}, {"measurement": "ECGs Grade 2 (ST segment depression)", "setting": "[3]; [16]", "value": 2, "unit": "%"}, {"measurement": "Patients with worst ECG Grade 1", "setting": "[3]; [17]", "value": 43, "unit": "%"}, {"measurement": "Patients with worst ECG Grade 2", "setting": "[3]; [17]", "value": 54, "unit": "%"}, {"measurement": "ECGs Grade 0", "setting": "[3]; [18]", "value": 49, "unit": "%"}, {"measurement": "ECGs Grade 1", "setting": "[3]; [18]", "value": 44, "unit": "%"}, {"measurement": "ECGs Grade 2", "setting": "[3]; [18]", "value": 7, "unit": "%"}, {"measurement": "ECGs Grade 0", "setting": "[3]; [19]", "value": 55, "unit": "%"}, {"measurement": "ECGs Grade 1", "setting": "[3]; [19]", "value": 45, "unit": "%"}]}
